From article PMC9959048, “Lipidation of Naturally Occurring α-Helical Antimicrobial Peptides as a Promising Strategy for Drug Design” (International Journal of Molecular Sciences, 2023)
≈ marks a conversion by molar mass, not a printed value. Where two headings read alike, the source gives them in different places. Residues, ends and D or L forms follow the SMILES beside them. *: point of attachment. Lauroyl = CCCCCCCCCCCC(=O)*; Decanoyl = CCCCCCCCCC(=O)*

What was measured:
S. epidermidis PCM521 = format: cell-based, Staphylococcus epidermidis
Method: (§1) The evaluation of the antimicrobial activity of the synthesized lipopeptides was performed against the following reference bacterial and fungal strains: Staphylococcus aureus PCM 1650, Staphylococcus aureus PCM 2054, Staphylococcus epidermidis PCM 521, Staphylococcus epidermidis PCM 2118, Escherichia coli PCM 2057, Candida albicans PCM 2566, Candida glabrata CCM 8270, Candida krusei CCM 8271, Candida parapsilosis CCM 8260.
(§2) For the initial cultivation of the bacteria and fungi, Luria-Bertani broth (LB, Biomaxima, Lublin, Poland) and Sabouraud Dextrose broth (SB, Biomaxima, Lublin, Poland) were used, respectively. Antimicrobial properties of the compounds were analyzed through the determination of MIC (minimal inhibitory concentrations) by my means of the serial micro-dilution technique according to the guidelines of Clinical & Laboratory Standard Institute (CLSI) established for aerobic bacteria and yeasts.
(§3) According to the procedures, Mueller–Hinton broth (MHB) was used as the working medium for the analysis of the bacterial susceptibility, while RPMI-1640 (with L-glutamine, without sodium bicarbonate) growth medium buffered with MOPS (morpholinepropanesulfonic acid) and supplemented with 2% glucose was used for the experiments with the fungi.
(§4) The experiments were carried out for 24 h at 37 and 35 °C for the bacteria and fungi, respectively. Then, the absorbance was measured at 600 nm for each well of the 96-well plate using a microplate reader (Sunrise TM, Tecan Trading AG, Männedorf, Switzerland). Based on the obtained results, the degree of inhibition of the growth of microorganisms (expressed in %) in the presence of the tested compounds range was determined with respect to the control probes. Inoculated wells without peptide were treated as a positive control (100% growth), and the wells containing working medium only were defined as a negative control (0% growth). All measurements were repeated in triplicate.

S. epidermidis PCM2118 = format: cell-based, Staphylococcus epidermidis
Method: as §1, §2, §3, §4

S. aureus PCM2054 = format: cell-based, Staphylococcus aureus
Method: as §1, §2, §3, §4

C. glabrata CCM8270 = format: cell-based, Candida glabrata
Method: as §1, §2, §3, §4

C. albicans PCM2566 = format: cell-based, Candida albicans
Method: as §1, §2, §3, §4

E. coli PCM2057 = format: cell-based, Escherichia coli
Method: as §1, §2, §3, §4

C. krusei CCM8271 = format: cell-based, Candida krusei
Method: as §1, §2, §3, §4

C. parapsilosis CCM 8260 = format: cell-based, Candida parapsilosis
Method: as §1, §2, §3, §4

S. aureus PCM1650 = format: cell-based, Staphylococcus aureus
Method: as §1, §2, §3, §4

[1] = Mueller–Hinton broth, inoculum 5 × 10^5 CFU/mL, 24 h, 37 °C, absorbance 600 nm, triplicate
[2] = RPMI-1640 with MOPS and 2% glucose, inoculum 5 × 10^3 CFU/mL, 24 h, 35 °C, absorbance 600 nm, triplicate

| SMILES | MIC, S. epidermidis PCM521 (S. epidermidis PCM521; PCM521, 24 h) [µg/mL] | MIC, S. epidermidis PCM2118 (S. epidermidis PCM2118; PCM2118, 24 h) [µg/mL] | MIC, S. aureus PCM2054 (S. aureus PCM2054; PCM2054, 24 h) [µg/mL] | MIC, C. glabrata CCM8270 (C. glabrata CCM8270; CCM8270, 24 h) [µg/mL] | MIC, C. albicans PCM2566 (C. albicans PCM2566; PCM2566, 24 h) [µg/mL] | MIC, E. coli PCM2057 (E. coli PCM2057; PCM2057, 24 h) [µg/mL] | MIC, C. krusei CCM8271 (C. krusei CCM8271; CCM8271, 24 h) [µg/mL] | MIC, C. parapsilosis CCM 8260 (C. parapsilosis CCM 8260; CCM 8260, 24 h) [µg/mL] | MIC, S. epidermidis PCM521 (S. epidermidis PCM521; [1]) [µg/mL] | MIC, S. epidermidis PCM2118 (S. epidermidis PCM2118; [1]) [µg/mL] | MIC, S. aureus PCM2054 (S. aureus PCM2054; [1]) [µg/mL] | MIC, C. glabrata CCM8270 (C. glabrata CCM8270; [2]) [µg/mL] | MIC, C. albicans PCM2566 (C. albicans PCM2566; [2]) [µg/mL] | MIC, E. coli PCM2057 (E. coli PCM2057; [1]) [µg/mL] | MIC, C. krusei CCM8271 (C. krusei CCM8271; [2]) [µg/mL] | MIC, C. parapsilosis CCM 8260 (C. parapsilosis CCM 8260; [2]) [µg/mL] | MIC, S. aureus PCM1650 (S. aureus PCM1650; PCM1650, 24 h) [µg/mL] | MIC, S. aureus PCM1650 (S. aureus PCM1650; [1]) [µg/mL] |
| --- | --- | --- | --- | --- | --- | --- | --- | --- | --- | --- | --- | --- | --- | --- | --- | --- | --- | --- |
| CCCCCCCCCC(=O)N[C@H](C(=O)N[C@@H](CCCCN)C(=O)N[C@@H](CCCCN)C(=O)N[C@H](C(=O)N[C@@H](CC(C)C)C(=O)N[C@@H](CO)C(=O)N[C@@H](CCCCN)C(=O)N[C@H](C(=O)N[C@@H](CCCCN)C(=O)N[C@@H](CCCCN)C(=O)N[C@@H](CC(C)C)C(=O)N[C@@H](CC(C)C)C(=O)N[C@@H](CCCCN)C(N)=O)[C@@H](C)CC)[C@@H](C)CC)[C@@H](C)CC [C10-LK6] (Decanoyl-IKKILSKIKKLLK-NH2) | 6.25 (≈ 3.66 µM) | 6.25 (≈ 3.66 µM) | 50 (≈ 29.3 µM) | 6.25 (≈ 3.66 µM) | 6.25 (≈ 3.66 µM) | >50 | 6.25 (≈ 3.66 µM) | 6.25 (≈ 3.66 µM) |  |  |  |  |  |  |  |  |  |  |
| CCCCCCCCCCCC(=O)N[C@@H](CCCCN)C(=O)N[C@@H](CCCNC(=N)N)C(=O)N[C@@H](Cc1ccccc1)C(=O)N[C@@H](CCCCN)C(=O)N[C@@H](CCCCN)C(=O)N[C@@H](Cc1ccccc1)C(=O)N[C@@H](Cc1ccccc1)C(=O)N[C@@H](CCCCN)C(=O)N[C@@H](CCCCN)C(=O)N[C@@H](CC(C)C)C(=O)N[C@@H](CCCCN)C(N)=O [C12-ATRA-1] (Lauroyl-KRFKKFFKKLK-NH2) |  |  |  |  |  |  |  |  | 3.13 (≈ 1.86 µM) | 3.13 (≈ 1.86 µM) | 3.9 (≈ 2.32 µM) | 6.25 (≈ 3.72 µM) | 2.5 (≈ 1.49 µM) | 31.25 (≈ 18.6 µM) | 2.5 (≈ 1.49 µM) | 12.5 (≈ 7.44 µM) |  |  |
| CCCCCCCCCCCC(=O)N[C@H](C(=O)N[C@@H](CCCCN)C(=O)N[C@@H](CCCCN)C(=O)N[C@H](C(=O)N[C@@H](CC(C)C)C(=O)N[C@@H](CO)C(=O)N[C@@H](CCCCN)C(=O)N[C@H](C(=O)N[C@@H](CCCCN)C(=O)N[C@@H](CCCCN)C(=O)N[C@@H](CC(C)C)C(=O)N[C@@H](CC(C)C)C(=O)N[C@@H](CCCCN)C(N)=O)[C@@H](C)CC)[C@@H](C)CC)[C@@H](C)CC [C12-LK6] (Lauroyl-IKKILSKIKKLLK-NH2) | 25 (≈ 14.4 µM) | 6.25 (≈ 3.6 µM) | 50 (≈ 28.8 µM) | 3.13 (≈ 1.8 µM) | 6.25 (≈ 3.6 µM) | >50 | 6.25 (≈ 3.6 µM) | 6.25 (≈ 3.6 µM) |  |  |  |  |  |  |  |  | 25 (≈ 14.4 µM) |  |
| CCCCCCCCCCCC(=O)N[C@H](C(=O)N[C@@H](CC(N)=O)C(=O)N[C@@H](Cc1c[nH]c2ccccc12)C(=O)N[C@@H](CCCCN)C(=O)N[C@@H](CCCCN)C(=O)N[C@H](C(=O)N[C@@H](CC(C)C)C(=O)NCC(=O)N[C@@H](CCCCN)C(=O)N[C@H](C(=O)N[C@H](C(=O)N[C@@H](CCCCN)C(=O)N[C@H](C(=O)N[C@@H](C)C(=O)N[C@@H](CCCCN)C(N)=O)C(C)C)[C@@H](C)CC)[C@@H](C)CC)C(C)C)C(C)C [C12-LL-I] (Lauroyl-VNWKKVLGKIIKVAK-NH2) |  |  |  |  |  |  |  |  | 12.5 (≈ 6.56 µM) | 6.25 (≈ 3.28 µM) | 12.5 (≈ 6.56 µM) | 12.5 (≈ 6.56 µM) | >50 | >50 | 12.5 (≈ 6.56 µM) | 3.13 (≈ 1.64 µM) |  | 12.5 (≈ 6.56 µM) |
